# Test results published in US20080009511A1, “Cancer treatment with compounds inhibiting PKC alpha” (priority 2004, published 2008).
# Legend:
# U-937 lymphoma cells = test: Cell viability assay (trypan blue dye exclusion), viable cells counted at day 6; type: cell-based, human; settings: 5 micromoles
# Procedure: Cells were seeded for 24 hours. Then they were treated with PKC inhibitors or left untreated. The cells were then collected periodically and evaluated using trypan blue dye exclusion to assess viability using the method described by C Y Chen, et al., in J. Biol. Chem. 273:16700-16709. Cultures containing about 4×10^4 cells were treated with 5 micromoles of Gö7874 (except that PC3 prostate cancer cells were treated with 10 micromoles) and the viable cells were counted at day 6.
# [1] = test system: 3Y1 rat fibroblast cells overexpressing the epidermal growth factor receptor (EGFR); test: Soft agar/cell transformation assay; type: cell-based; settings: 1 micromole with EGF (100 ng/ml), in contrast to EGF alone
# Excerpt: 1×10^3 3Y1 rat fibroblast cells overexpressing the epidermal growth factor receptor (EGFR) were suspended in top agar (consisting of 20 percent calf serum, 0.38 percent agar and the remainder DMEM) and overlaid onto bottom agar (DMEM, 20 percent calf serum and 0.7 percent agar) as reported by Sementchenko et al., in Onocgen 17:2883-2888.
# KB oral cancer cells = test: Cell viability assay (trypan blue dye exclusion), viable cells counted at day 6; type: cell-based, human; settings: 5 micromoles
# Procedure, shortened: (§1)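 Cells grown in DMEM with 10 percent bovine calf serum were seeded for 24 hours, then cultures of about 4×10^4 cells received PKC inhibitors or were left untreated. Gö7874 was used at 5 micromoles; Gö6850, NGIC-I and the Ro31 compounds at 10 micromoles.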
# [2] = test system: 3Y1 rat fibroblast cells overexpressing EGF receptors (3Y1-EGFR cells); test: EGF-induced cell transformation (transformed morphology); type: cell-based; settings: 1 micromole
# [3] = test system: PC3 human prostate cancer cells; test: Cell viability assay (trypan blue dye exclusion), viable cells counted at day 6; type: cell-based; settings: 10 micromoles
# [4] = test system: H460 human lung cancer cells; test: as above; type: cell-based; settings: 5 micromoles
# Procedure, shortened: as §1
# [5] = test system: Jurkat cells (a human acute T-cell leukemia cell line); test: as above; type: cell-based; settings: 5 micromoles
# Procedure, shortened: as §1
# [6] = test system: Hela human cervical cancer cells; test: as above; type: cell-based; settings: 5 micromoles
# Procedure, shortened: as §1
# [7] = test system: NBT-II human bladder cancer cells; test: as above; type: cell-based; settings: 5 micromoles, about 4×10^4 cells seeded, untreated 2.9 ± 0.4
# Procedure, shortened: as §1
# [8] = test system: A431 human epidermoid carcinoma cells; test: as above; type: cell-based; settings: 5 micromoles
# Procedure, shortened: as §1
# U251 human glioma cells = test: as above; type: cell-based; settings: 5 micromoles
# Procedure, shortened: as §1
# [9] = test system: HT29 human colon cancer cells; test: as above; type: cell-based; settings: 5 micromoles
# Procedure, shortened: as §1
# [10] = test system: MDA-MB-468 human breast cancer cells; test: as above; type: cell-based; settings: 5 micromoles
# Procedure, shortened: as §1
# [11] = test system: PANC-1 human pancreatic carcinoma cells; test: as above; type: cell-based; settings: 5 micromoles
# Procedure, shortened: as §1
# [12] = test system: AGS human gastric cancer cells; test: as above; type: cell-based; settings: 5 micromoles
# Procedure, shortened: as §1
# [13] = test system: HepG2 human liver cancer cells; test: as above; type: cell-based; settings: 5 micromoles
# Procedure, shortened: as §1
# [14] = about 4×10^4 cells seeded, untreated 3.8 ± 0.4
smiles,measurement,setting,value
"COc1ccc2c(c1)c1c3c(c4c5ccccc5n(C)c4c1n2CC(O)CN(C)C)C(=O)NC3=O.Cl (stereo not drawn) [Gö7874, 5,7(6H)-dione,13-[3-(dimethylamino)-2-hydroxypropyl]-12,13-dihydro-3-methoxy-12-methyl-5H-Indolo[2,3-a]pyrrolo[3,4-c]carbazole, monohydrochloride]",cells that went to apoptosis after treatment,U-937 lymphoma cells,all
same,reduction of colony number in soft agar,[1],82%
same,cells that went to apoptosis after treatment,KB oral cancer cells,all
same,Treated (cell number × 10^5),KB oral cancer cells; [14],0 × 10^5
same,cell apoptosis during co-treatment,[2]; co-treatment with 100 ng/ml EGF,without detected cell apoptosis
same,effect on EGF-induced transformed morphology,[2]; co-treatment with 100 ng/ml EGF for 48 hours,partially blocked
same,cells that went to apoptosis after treatment,[3],all
same,Treated (cell number × 10^5),"[3]; about 4×10^4 cells seeded, untreated 7.1 ± 0.3",0 × 10^5
same,cells that went to apoptosis after treatment,[4],all
same,Treated (cell number × 10^5),"[4]; about 4×10^4 cells seeded, untreated 2.4 ± 0.2",0 × 10^5
same,"originally seeded cells survived (fraction, words)",[5],less than one third
same,Treated (cell number × 10^5),"[5]; about 4×10^4 cells seeded, untreated 8.8 ± 0.4",0.1 × 10^5
same,cells that went to apoptosis after treatment,[6],all
same,Treated (cell number × 10^5),"[6]; about 4×10^4 cells seeded, untreated 3.4 ± 0.4",0 × 10^5
same,Treated (cell number × 10^5),[7],0 × 10^5
same,cells that went to apoptosis after treatment,[8],all
same,Treated (cell number × 10^5),"[8]; about 4×10^4 cells seeded, untreated 5.4 ± 0.4",0 × 10^5
same,cells that went to apoptosis after treatment,U251 human glioma cells,all
same,Treated (cell number × 10^5),"U251 human glioma cells; about 4×10^4 cells seeded, untreated 9.6 ± 0.5",0 × 10^5
same,cells that went to apoptosis after treatment,[9],all
same,Treated (cell number × 10^5),[9]; [14],0 × 10^5
same,cells that went to apoptosis after treatment,[10],all
same,Treated (cell number × 10^5),"[10]; about 4×10^4 cells seeded, untreated 6.1 ± 0.4",0 × 10^5
same,cells that went to apoptosis after treatment,[11],all
same,Treated (cell number × 10^5),"[11]; about 4×10^4 cells seeded, untreated 2.1 ± 0.3",0 × 10^5
same,cells that went to apoptosis after treatment,[12],all
same,inhibition of cell proliferation,[12],More than 60%
same,Treated (cell number × 10^5),"[12]; about 4×10^4 cells seeded, untreated 2.4 ± 0.3",0.8 × 10^5
same,cells that went to apoptosis after treatment,[13],all
same,Treated (cell number × 10^5),"[13]; about 4×10^4 cells seeded, untreated 4.2 ± 0.4",0 × 10^5
